The source made the active and inactive calls. No cut-off for these calls is given here.

The values that follow come from ChEMBL document CHEMBL4616595, “Targeted suppression of metastasis regulatory transcription factor SOX2 in various cancer cell lines using a sequence-specific designer pyrrole-imidazole polyamide” (Bioorg Med Chem, 2020).

One assay has as its system MKN-45. Briefly: Cytotoxicity against human MKN45 cells assessed as reduction in cell viability incubated for 48 hrs by MTT assay. The format is functional, cell-based.
The test system of assay [1] is SW-620. Briefly: Cell cycle arrest in human SW620 cells assessed as reduction in accumulation at S phase at 2 uM to 5 uM after 48 hrs by propidium iodide staining based flow cytometry analysis. The format is functional.
Assay [2] relates to SOX2 promoter DNA. Briefly: Binding affinity to SOX2 promoter 5'-CTTTGTT-3' DNA in mouse Wehi3 cells assessed as reduction in SOX2 mRNA expression incubated for 48 hrs by qRT-PCR analysis. The format is cell-based.
The subject of assay [3] is SOX2 promoter DNA. Briefly: Binding affinity to SOX2 promoter 5'-CTTTGTT-3' DNA in human SW620 cells assessed as down regulation of stemness associated BMP-4 mRNA expression at 2 uM incubated for 48 hrs by qRT-PCR analysis. The format is cell-based. Conditions: SW-620.
The subject of assay [4] is SOX2 promoter DNA. Briefly: Binding affinity to SOX2 promoter 5'-CTTTGTT-3' DNA in human MKN45 cells assessed as reduction in SOX2 protein level incubated for 48 hrs by immunostaining based FACS analysis. It counts as cell-based. Conditions: MKN-45.
Assay [5] has as its system SOX2 promoter DNA. Briefly: Binding affinity to SOX2 promoter 5'-CTTTGTT-3' DNA in human SW620 cells assessed as down regulation of stemness associated KLF4 mRNA expression at 2 uM incubated for 48 hrs by qRT-PCR analysis. It counts as cell-based. Conditions: SW-620.
Assay [6] concerns SOX2 promoter DNA. Briefly: Binding affinity to SOX2 promoter 5'-CTTTGTT-3' DNA in mouse B16 cells assessed as reduction in SOX2 mRNA expression incubated for 48 hrs by qRT-PCR analysis. It counts as cell-based.
In assay [7] the test system is SOX2 promoter DNA. Briefly: Binding affinity to SOX2 promoter 5'-CTTTGTT-3' DNA in human SW620 cells assessed as upregulation of CDKN2B mRNA expression incubated for 48 hrs by qRT-PCR analysis. The format is cell-based. Conditions: SW-620.
The next assay relates to MCF7. Briefly: Cell cycle arrest in human MCF7 cells assessed as reduction in accumulation at S phase at 2 uM to 5 uM after 48 hrs by propidium iodide staining based flow cytometry analysis. It counts as functional.
Assay [8] has as its system SOX2 promoter DNA. Briefly: Binding affinity to SOX2 promoter 5'-CTTTGTT-3' DNA in human SW620 cells assessed as reduction in SOX2 protein level by measuring SOX2 level at 5 uM incubated for 48 hrs by immunostaining based FACS analysis (reference value: 55.9%). It counts as cell-based. The arrangement: scale not given: the % may be the effect or the level left. Conditions: SW-620.

For assay [9], the system named is SOX2 promoter DNA. Briefly: Binding affinity to SOX2 promoter 5'-CTTTGTT-3' DNA in human U2OS cells assessed as reduction in SOX2 mRNA expression incubated for 48 hrs by qRT-PCR analysis. The format is cell-based.
For assay [10], the system named is SW-620. Briefly: Cell cycle arrest in human SW620 cells assessed as reduction in accumulation at G2/M phase at 2 uM to 5 uM after 48 hrs by propidium iodide staining based flow cytometry analysis. The format is functional.
Assay [11] relates to SOX2 promoter DNA. Briefly: Binding affinity to SOX2 promoter 5'-CTTTGTT-3' DNA in human SW620 cells assessed as down regulation of Cyclin D1 mRNA expression at 2 uM incubated for 48 hrs by qRT-PCR analysis. The note with it: SW-620. The format is cell-based.
The subject of assay [12] is SOX2 promoter DNA. Briefly: Binding affinity to SOX2 promoter 5'-CTTTGTT-3' DNA in human SW620 cells assessed as down regulation of ZEB2 mRNA expression at 2 uM incubated for 48 hrs by qRT-PCR analysis. The format is cell-based. The note with it: SW-620.
In assay [13] the test system is SOX2 promoter DNA. Briefly: Binding affinity to SOX2 promoter 5'-CTTTGTT-3' DNA in human SW620 cells assessed as down regulation of CDH2 gene expression at 2 uM incubated for 48 hrs by Cy3-labelled cRNA-based microarray analysis. It counts as cell-based. The note with it: SW-620.

In the case of `CC(=O)Nc1cc(C(=O)Nc2cc(C(=O)Nc3cc(C(=O)NCCC(=O)Nc4cn(C)c(C(=O)Nc5cc(C(=O)NCCCC(=O)Nc6cc(C(=O)Nc7cc(C(=O)NCCC(=O)Nc8cc(C(=O)Nc9cc(C(=O)Nc%10cn(C)c(C(=O)NCCCN(C)C)n%10)n(C)c9)n(C)c8)n(C)c7)n(C)c6)n(C)c5)n4)n(C)c3)n(C)c2)n(C)c1`, the Activity entry is “Dose-dependent effect” in the assay with MKN-45, “Dose-dependent effect” in the assay on SOX2 promoter DNA [4] and 28.1% with SOX2 promoter DNA [8]. Moreover, the outcome in the assay with SW-620 [1], with SOX2 promoter DNA [2], in the assay on SOX2 promoter DNA [3], in the assay on SOX2 promoter DNA [5], in the assay on SOX2 promoter DNA [6] and in the assay on SOX2 promoter DNA [7] was Active. In addition, the result in the assay on MCF7, in the assay with SOX2 promoter DNA [9], in the assay on SW-620 [10], with SOX2 promoter DNA [11], in the assay on SOX2 promoter DNA [12] and in the assay on SOX2 promoter DNA [13] was Active.
